Measurements: article PMC11396129, “Oxindole–benzothiazole hybrids as CDK2 inhibitors and anticancer agents: design, synthesis and biological evaluation” (BMC Chemistry, 2024)

Key:
[1] = test system: RPMI-8226; assay: NCI 60 panel growth inhibition (SRB), leukemia; assay type: cell-based, human; conditions: RPMI-8226, 10 μM
Protocol: (§1) Screening of cytotoxic activity against a panel of sixty human tumor cell lines The selected compounds by NCI were evaluated for their anticancer activity in a two- stage process. […] Then, the output from the single dose screen is reported as a mean graph. […] Assay protocol. […] For a typical screening experiment, cells are inoculated into 96 well microtiter plates in 100 µL at plating densities ranging from 5000 to 40,000 cells/well depending on the doubling time of individual cell lines. […] After 24 h, two plates of each cell line are fixed in situ with TCA, to represent a measurement of the cell population for each cell line at the time of drug addition (Tz). The experimental drugs are solubilized in dimethyl sulfoxide at 400-fold the desired final maximum test concentration and stored frozen prior to use. At the time of drug addition, an aliquot of frozen concentrate is thawed and diluted to twice the desired final maximum test concentration with complete medium containing 50 µg/mL gentamicin. Additional four, 10-fold or ½ log serial dilutions are made to provide a total of five drug concentrations plus control. […] For adherent cells, the assay is terminated by the addition of cold TCA. […] The supernatant is discarded, and the plates are washed five times with tap water and air dried. […] Using the seven absorbance measurements [time zero, (Tz), control growth, (C), and test growth in the presence of drug at the five concentration levels (Ti)], the percentage growth is calculated at each of the drug concentrations levels. Percentage growth inhibition is calculated as: [(Ti Tz)/(C–Tz)] x 100 for concentrations for which Ti>/=Tz and [(Ti-Tz)/Tz] x 100 for concentrations for which Ti < Tz. Three dose response parameters are calculated for each experimental agent. […] The drug concentration resulting in total growth inhibition (TGI) is calculated from Ti = Tz. […] Values are calculated for each of these three parameters if the level of activity is reached; however, if the effect is not reached or is exceeded, the value for that parameter is expressed as greater or less than the maximum or minimum concentration tested.

[2] = test system: K-562; assay: NCI 60 panel growth inhibition (SRB), leukemia; assay type: cell-based, human; conditions: K-562, 10 μM
Protocol: as §1

[3] = test system: HL-60(TB); assay: NCI 60 panel growth inhibition (SRB), leukemia; assay type: cell-based, human; conditions: HL-60(TB), 10 μM
Protocol: as §1

[4] = test system: CCRF-CEM; assay: NCI 60 panel growth inhibition (SRB), leukemia; assay type: cell-based, human; conditions: 10 μM
Protocol: as §1

[5] = test system: MOLT-4; assay: NCI 60 panel growth inhibition (SRB), leukemia; assay type: cell-based, human; conditions: MOLT-4, 10 μM
Protocol: as §1

[6] = test system: SR; assay: NCI 60 panel growth inhibition (SRB), leukemia; assay type: cell-based, human; conditions: 10 μM
Protocol: as §1

[7] = test system: SF-539; assay: NCI 60 panel growth inhibition (SRB), CNS cancer; assay type: cell-based, human; conditions: SF-539, 10 μM
Protocol: as §1

[8] = test system: SF-295; assay: NCI 60 panel growth inhibition (SRB), CNS cancer; assay type: cell-based, human; conditions: SF-295, 10 μM
Protocol: as §1

[9] = test system: SNB-19; assay: NCI 60 panel growth inhibition (SRB), CNS cancer; assay type: cell-based, human; conditions: SNB-19, 10 μM
Protocol: as §1

[10] = test system: SF-268; assay: NCI 60 panel growth inhibition (SRB), CNS cancer; assay type: cell-based, human; conditions: SF-268, 10 μM
Protocol: as §1

[11] = test system: U251; assay: NCI 60 panel growth inhibition (SRB), CNS cancer; assay type: cell-based, human; conditions: U251, 10 μM
Protocol: as §1

[12] = test system: SNB-75; assay: NCI 60 panel growth inhibition (SRB), CNS cancer; assay type: cell-based, human; conditions: SNB-75, 10 μM
Protocol: as §1

[13] = test system: 786-0; assay: NCI 60 panel growth inhibition (SRB), renal cancer; assay type: cell-based, human; conditions: 786-0, 10 μM
In short: (§2)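 Percent growth per concentration, normalised to Tz and control wells, yields three dose-response parameters including TGI (Ti = Tz). Where activity is not reached or is exceeded, the value is reported as greater or less than the tested extreme.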

[14] = test system: UO-31; assay: NCI 60 panel growth inhibition (SRB), renal cancer; assay type: cell-based, human; conditions: UO-31, 10 μM
In short: as §2

[15] = test system: TK-10; assay: NCI 60 panel growth inhibition (SRB), renal cancer; assay type: cell-based, human; conditions: TK-10, 10 μM
In short: as §2

[16] = test system: RXF 393; assay: NCI 60 panel growth inhibition (SRB), renal cancer; assay type: cell-based, human; conditions: RXF 393, 10 μM
In short: as §2

[17] = test system: NCI 60 cancer cell line panel; assay: NCI 60 panel growth inhibition (SRB), whole panel; assay type: cell-based, human; conditions: mean over NCI 60 panel, 10 μM
Protocol: as §1

[18] = test system: OVCAR-8; assay: NCI 60 panel growth inhibition (SRB), ovarian cancer; assay type: cell-based, human; conditions: OVCAR-8, 10 μM
Protocol: as §1

[19] = test system: NCI/ADR-RES; assay: as above; assay type: cell-based, human; conditions: 10 μM
Protocol: as §1

[20] = test system: SK-OV-3; assay: as above; assay type: cell-based, human; conditions: SK-OV-3, 10 μM
Protocol: as §1

[21] = test system: OVCAR-5; assay: as above; assay type: cell-based, human; conditions: OVCAR-5, 10 μM
Protocol: as §1

[22] = test system: OVCAR-3; assay: as above; assay type: cell-based, human; conditions: OVCAR-3, 10 μM
Protocol: as §1

[23] = test system: IGROV1; assay: as above; assay type: cell-based, human; conditions: IGROV1, 10 μM
Protocol: as §1

[24] = test system: OVCAR-4; assay: as above; assay type: cell-based, human; conditions: OVCAR-4, 10 μM
Protocol: as §1

[25] = molecular target: T1, CDK2 (Homo sapiens, UniProt P24941); assay: CDK2 kinase assay (BPS kit, Kinase-Glo Max); assay type: biochemical; conditions: mean of two independent experiments ± SD
T1 construct: purchased BPS Biosciences 79599

[26] = test system: HT29; assay: NCI 60 panel growth inhibition (SRB), colon cancer; assay type: cell-based, human; conditions: HT29, 10 μM
In short: as §2

[27] = test system: SK-MEL-2; assay: NCI 60 panel growth inhibition (SRB), melanoma; assay type: cell-based, human; conditions: SK-MEL-2, 10 μM
In short: as §2

| Structure (SMILES) | GI% [1] | GI% [2] | GI% [3] | GI% [4] | GI% [5] | GI% [7] | GI% [8] | GI% [9] | GI% [10] | GI% [11] | GI% [12] | GI% [13] | GI% [14] | GI% [15] | GI% [18] | GI% [19] [%] | GI% [21] | GI% [22] | GI% [23] | melting point [°C] | further results |
| --- | --- | --- | --- | --- | --- | --- | --- | --- | --- | --- | --- | --- | --- | --- | --- | --- | --- | --- | --- | --- | --- |
| Cc1ccc2c(c1)C(=NNC(=O)COc1ccccc1-c1nc3ccccc3s1)C(=O)N2 [Compound 9b, 2-(2-(Benzo[d]thiazol-2-yl)phenoxy)-N′-(5-methyl-2-oxoindolin-3-ylidene)acetohydrazide] | 30.53% | 20.57% | 8.38% | 23.64% | 29.12% | 76.88% | 44.34% | 74.25% | 43.82% | 56.51% | 54.28% | 57.65% | 27.53% | 93.55% | 57.37% | 71.87 | 7.29% | 79.13% | 35.91% | 251 to 253 | GI% [6]: 18.71%; GI% [16]: 134.59%; Mean GI% [17]: 44.28%; GI% [20]: 15.84%; GI% [24]: 99.49%; IC50 [25]: 0.7 ± 0.013 µM |
| COc1cccc(-c2nc3ccccc3s2)c1OCC(=O)NN=C1C(=O)Nc2ccc(Br)cc21 [Compound 9l, 2-(2-(Benzo[d]thiazol-2-yl)-6-methoxyphenoxy)-N′-(5-bromo-2-oxoindolin-3-ylidene)acetohydrazide] | 25.41% | 18.70% | – (GI% < 5%) | 15.16% | 36.40% | 9.75% | 33.14% | – (GI% < 5%) | 8.60% | – (GI% < 5%) | 10.42% | 16.93% | 30.14% | – (GI% < 5%) | 10.38% | 19.73 | – (GI% < 5%) | – (GI% < 5%) | 11.35% | 266 to 268 | GI% [6]: 16.68%; GI% [16]: 14.21%; Mean GI% [17]: 12.52%; GI% [26]: 9.08%; GI% [27]: 9.60%; GI% [20]: – (GI% < 5%); GI% [24]: 11.40% |
| COc1cccc(-c2nc3ccccc3s2)c1OCC(=O)NN=C1C(=O)Nc2ccc(Cl)cc21 [Compound 9k, 2-(2-(Benzo[d]thiazol-2-yl)-6-methoxyphenoxy)-N′-(5-chloro-2-oxoindolin-3-ylidene)acetohydrazide] | 29.96% | 29.20% | 6.09% | 24.47% | 43.70% | 30.36% | 38.31% | – (GI% < 5%) | – (GI% < 5%) | – (GI% < 5%) | – (GI% < 5%) | 22.12% | 33.24% | – (GI% < 5%) | 12.69% | 20.56 | 8.99% | – (GI% < 5%) | – (GI% < 5%) | 263 to 265 | GI% [6]: 17.83%; GI% [16]: 37.81%; Mean GI% [17]: 14.92%; GI% [26]: 14.83%; GI% [27]: 12.78%; GI% [20]: – (GI% < 5%); GI% [24]: 13.16% |
| COc1ccc(-c2nc3ccccc3s2)cc1OCC(=O)NN=C1C(=O)Nc2ccc(C)cc21 [Compound 9n, 2-(5-(Benzo[d]thiazol-2-yl)-2-methoxyphenoxy)-N′-(5-methyl-2-oxoindolin-3-ylidene)acetohydrazide] | 14.26% | 6.70% | – (GI% < 5%) | 16.11% | 13.07% | 11.49% | – (GI% < 5%) | – (GI% < 5%) | 5.27% | – (GI% < 5%) | – (GI% < 5%) | 44.99% | – (GI% < 5%) | – (GI% < 5%) | – (GI% < 5%) | 14.31 | 7.10% | – (GI% < 5%) | – (GI% < 5%) | 224 to 226 | GI% [26]: – (GI% < 5%); GI% [27]: – (GI% < 5%); GI% [20]: – (GI% < 5%) |
| O=C(COc1ccccc1-c1nc2ccccc2s1)NN=C1C(=O)Nc2ccc(Cl)cc21 [Compound 9e, 2-(2-(Benzo[d]thiazol-2-yl)phenoxy)-N′-(5-chloro-2-oxoindolin-3-ylidene)acetohydrazide] | – (GI% < 5%) | – (GI% < 5%) | – (GI% < 5%) | –^a (GI% < 5%) | – (GI% < 5%) | – (GI% < 5%) | – (GI% < 5%) | – (GI% < 5%) | – (GI% < 5%) | – (GI% < 5%) | – (GI% < 5%) | – (GI% < 5%) | – (GI% < 5%) | – (GI% < 5%) | – (GI% < 5%) | 6.89 | – (GI% < 5%) | – (GI% < 5%) | – (GI% < 5%) | 265 to 267 | GI% [6]: 6.46%; GI% [16]: – (GI% < 5%); GI% [26]: – (GI% < 5%); GI% [27]: – (GI% < 5%); GI% [20]: – (GI% < 5%); GI% [24]: – (GI% < 5%) |
| COc1ccc(-c2nc3ccccc3s2)cc1OCC(=O)NN=C1C(=O)Nc2ccc(Br)cc21 [Compound 9r, 2-(5-(Benzo[d]thiazol-2-yl)-2-methoxyphenoxy)-N′-(5-bromo-2-oxoindolin-3-ylidene)acetohydrazide] | 19.17% | 24.52% | – (GI% < 5%) | 42.87% | 13.12% | 21.62% | – (GI% < 5%) | 48.19% | – (GI% < 5%) | 30.21% | – (GI% < 5%) | 20.37% | 15.64% | 36.32% | 38.56% | 27.04 | – (GI% < 5%) | – (GI% < 5%) | – (GI% < 5%) | 271 to 273 | GI% [6]: – (GI% < 5%); GI% [16]: 15.08%; Mean GI% [17]: 10.08%; GI% [26]: – (GI% < 5%); GI% [27]: 17.63%; GI% [24]: – (GI% < 5%) |
